Experimental data taken from PubChem BioAssay AID2305 (GlaxoSmithKline (GSK), 2010).

Each compound was assayed on P. falciparum 3D7 growth, pLDH absorbance (assay: blood-stage malaria parasite growth potency – strain 3D7, dose response (AID 2305)).

| SMILES | IC50 |
| --- | --- |
| Cc1ccc(NS(=O)(=O)c2ccc(-c3ccccc3)cc2)c(Cn2cnc(N3CCCNCC3)cc2=O)c1 | 860 nM |
| COc1ccc(-c2csc3ncnc(Cl)c23)cc1 | 780 nM |
| CC[C@H](C)[C@@H](C(=O)N1CCOCC1)N1CC[C@H](NS(=O)(=O)CC(C)(C)c2ccc(Cl)cc2)C1=O | 550 nM |
| CCCCCCN(C(=O)OCc1ccccc1)[C@@H]1CCN(C(=O)OC(C)(C)C)C[C@H]1C(=O)OCC | 370 nM |
| CN(C)CCOc1cc(NC(=O)Nc2ccc(-c3ccccc3)cc2)ccc1I | 600 nM |
| CCCCCc1cc(O)c2c3c(c(=O)oc2c1)CN(C)CC3 | 120 nM |
| Cc1ccc(C(=O)Nc2cc(S(=O)(=O)N3CCCC3)ccc2OCC(F)(F)F)cc1 | 850 nM |
| CCc1ccc(-n2cc(C(=O)c3cc(Br)ccc3O)cc(C#N)c2=O)cc1 | 800 nM |
| N#Cc1ccc2[nH]cc(CN3CCC4(CC3)CN(CCNCc3ccccc3)C(=O)CO4)c2c1 | 760 nM |
| COc1cc(CCCOc2c(N)nc(N)nc2N)cc(OC)c1OC | 1220 nM |
| CN(C)c1ccc(-c2csc(C(=O)NCC3CCN(Cc4cccc(C(F)(F)F)c4)C3)c2)cc1 (configuration not stated) | 840 nM |
| CC(C)c1ccc(CN2CCC(NC(=O)c3ccc(-c4cccc(F)c4)s3)CC2)cc1 | 1330 nM |
| COc1ccc(CCNCCCCCCNCCc2ccc(-c3ccccc3)cc2)cc1OC | 960 nM |
| COc1ccc(Nc2nc(N)c3cc(OC)c(OC)cc3n2)cc1OC | 730 nM |
| CC(C)[C@@H](C(=O)NCc1cccc(C(F)(F)F)c1)N1C(=O)CCC1C(=O)Nc1ccc([N+](=O)[O-])cc1 (some centres not stated) | 930 nM |
| O=C(CN1CCCC1)Nc1cccc(C(=O)Nc2cccc(C(F)(F)F)c2)c1 | 510 nM |
| O=C(c1ccc(-c2ccc(Cl)cc2)o1)N1CCc2cc3nccc(N4CCN5CCC[C@H]5C4)c3cc21 | 170 nM |
| CC(=NNC(N)=O)C1=C(O)C(c2ccccc2)N(C2CCCCC2)C1=O (configuration not stated) | 30 nM |
| C(=NNc1ccnc2ccccc12)c1ccncc1 | 740 nM |
| Oc1ccc(CCNc2nc(NCc3ccccc3-c3ccc(C(F)(F)F)cc3)nc(NC3CCNCC3)n2)cc1 | 920 nM |
| CSC1=NC(=Nc2ccccc2C)C2(CCC(C(C)(C)C)CC2)N1c1ccccc1Cl (configuration not stated) | 800 nM |
| Cc1cc(NC(=O)c2cccs2)ccc1OC1CCN(Cc2ccc(C#N)cc2)CC1 | 720 nM |
| Cc1c(S(=O)(=O)Nc2ccc3nccc(N4C[C@@H](C)N[C@@H](C)C4)c3c2)sc2ccc(Cl)cc12 | 1020 nM |
| CC(C)/C(=C(/F)CN1C(=O)C(NC(=O)c2cc3ccccc3[nH]2)C(=O)N(c2ccccc2)c2ccccc21)c1ccccc1 (configuration not stated) | 700 nM |

| SMILES | IC50 |
| --- | --- |
| Cc1c[nH]c2cc(/C=C/C(=O)NC3CCC(CCN4CCc5ccc(C#N)cc5CC4)CC3)ccc12 (configuration not stated) | 800 nM |
| O=C(OCc1ccccn1)c1nc2ccccc2[nH]1 | 790 nM |
| O=C(CC1SC(N2N=C(c3cccs3)CC2c2ccccc2)=NC1=O)Nc1ccc(Cl)cc1 (configuration not stated) | 1680 nM |
| CCN(CC)CCCC(C)Nc1ccnc2cc(C#N)ccc12 (configuration not stated) | 140 nM |
| CCc1cn(CCc2ccccc2)c2ccc(C(=O)N[C@@H](Cc3ccccc3)[C@H](O)CNC(C)(C)CCCC(C)C)cc12 | 220 nM |
| CCCc1cc(OC)c(CC2c3cccc(O)c3CCN2C)cc1OC (configuration not stated) | 300 nM |
| Cc1ccc(O)cc1Nc1ccnc2cc(-c3csc(CN4CCN(C)CC4)n3)ccc12 | 600 nM |
| Cc1ccc(N/C(N)=N/c2ncccc2OCc2c(F)cccc2Cl)cc1 | 1190 nM |
| CCCN1CCN(c2ccccc2NS(=O)(=O)c2ccc(C(=O)Nc3ccc(Cl)cc3)cc2)CC1 | 1140 nM |
| O=C(c1cccc(Cl)c1)N1CCN(c2ccc([N+](=O)[O-])c(NC3CC3)c2)CC1 | 870 nM |
| CC(C)c1ccc(NC(=O)N2CCc3ccc(OCCN(C(C)C)C(C)C)cc32)c(Br)c1 | 1090 nM |
| O=C(C=Cc1ccc(Cl)c(Cl)c1)NC1CCN(CCc2ccccc2)CC1 | 590 nM |
| CS(=O)(=O)CCNCc1cccc(-c2cc3nccc(Nc4ccc(Oc5ccccc5)cc4)c3cc2Cl)c1 | 620 nM |
| CCOCc1cn(CC(=O)c2ccc(-c3ccccc3)cc2)c(C)nc1=N | 320 nM |
| Nc1c2c(nc3ccc(NC(=O)CCCCCc4ccccc4)cc13)CCCC2 | 440 nM |
| CO/C(=C\C=C\c1cc2cc(Cl)c(Cl)cc2[nH]1)C(=O)NCCCNCCN(C)c1ccccc1 | 780 nM |
| CCOc1cc(C(=O)NCC2CCN(CC3CCCCC3)CC2)ccc1-c1nc2ccc(Cl)cc2[nH]1 | 560 nM |
| COc1ccc(CCNC(=O)c2ccccc2O)cc1-c1ccc(C(C)(C)C)cc1 | 560 nM |
| CCc1nc2c(cnn2CC)c(NC2CCOCC2)c1CNC(=O)N1CCOCC1 | 890 nM |
| Cc1cccc2sc(N(CCCn3ccnc3)C(=O)C=Cc3cccs3)nc12 | 1280 nM |
| CC(C)N=C(N)NN=Cc1ccc(Cl)c(Cl)c1 | 530 nM |
| CCCCNCc1cc(Cl)c2ccccc2c1O | 460 nM |
| COc1cccc2c(NN=Cc3cccc(Cl)c3)cc(C)nc12 | 710 nM |
| Cc1ccc2nc(-c3cc(-c4cccc(C#N)c4)cnc3N)[nH]c2c1 | 120 nM |

| SMILES | IC50 |
| --- | --- |
| COc1ccc(C(=O)Cn2nc(-c3ccc(Cl)cc3)ccc2=O)c(OC)c1 | 500 nM |
| Cc1cc(C(=O)Nc2ccc3c(c2)CCN3C2CCN(Cc3cc(F)cc(F)c3F)C2)no1 (configuration not stated) | 280 nM |
| COc1cccc(CNc2ncc(-c3ccsc3)c(-c3nccs3)n2)c1 | 420 nM |
| O=C(Nc1cccc(-c2cccc(-c3nc4ccccc4[nH]3)c2)c1)Nc1ccc2c(c1)OCO2 | 170 nM |
| CC(C)NCc1ccc(-c2cccc(-c3nc4ccc(F)cc4[nH]3)c2)cc1 | 410 nM |
| O=C(Nc1ccc(Cl)cc1)c1ccc(CN2CCCN(Cc3cccc(Cl)c3)CC2)cc1 | 830 nM |
| CCn1ccc2c(N3CCCC3=O)cc(C(=O)N[C@@H](Cc3ccccc3)[C@H](O)CNC(C)(C)CCCC(C)C)cc21 | 350 nM |
| CCn1c(C)c(C)c2cc(C(=O)Nc3ccon3)ccc21 | 730 nM |
| COc1ccc(-c2ccc(CNC(=O)c3ccc(Cl)cc3)c(F)c2)cc1CN1CCCN(C)CC1 | 710 nM |
| COc1cc(Cc2cnc(N)nc2N)cc(OCCCCNS(=O)(=O)C(F)(F)F)c1OC | 1040 nM |
| CC[C@H]1CN2CC[C@H]1C[C@H]2[C@H](O)c1cc(/C=C/c2ccccc2)nc2ccc(OC)cc12 | 40 nM |
| CC(=O)N(Cc1nc(-c2cc(C(F)(F)F)cc(C(F)(F)F)c2)cs1)c1c(C)cccc1C | 110 nM |
| CCOc1cc(C(C)C)ccc1N1CCN(CCCCNC(=O)c2ccc(NC(=O)c3ccc(Cl)cc3)cc2)CC1 | 420 nM |
| COc1ccc(CN2CCCN(Cc3cccc(NC(=O)c4ccc(-c5ccccc5)cc4)c3)CC2)cc1 | 940 nM |
| Cc1ccccc1C1CCN(C2CCC(NC(=O)/C=C/c3ccc(Cl)cc3)CC2)CC1 (configuration not stated) | 800 nM |
| Cc1[nH]c2ccccc2c1C1CCN(CC2CCC(NC(=O)/C=C/c3ccc(Cl)c(Cl)c3)CC2)CC1 (configuration not stated) | 820 nM |
| N#Cc1cccc(CN2CCCN(Cc3cccc(C(=O)Nc4ccc(Cl)cc4)c3)CC2)c1 | 1180 nM |
| CCCCCCn1c2c(c(=N)c3c1CCC3)CCC2 | 180 nM |
| CCC(C)NC(=O)CN1CN(c2ccccc2)C2(CCN(C(=O)c3ccc(-c4ccccc4)cc3)CC2)C1=O (configuration not stated) | 130 nM |
| O=C(NCCCCCN1CCC(c2c[nH]c3ccccc23)CC1)Nc1cccc(Cl)c1 | 1020 nM |
| O=C(Nc1ccncc1)c1cc(C(=O)Nc2ccncc2)cc([N+](=O)[O-])c1 | 610 nM |
| O=C(Nc1ccccc1)c1ccc(N2CCC(COc3cccc(C(F)(F)F)c3)CC2)nc1 | 300 nM |
| CCCc1cc(OC)c(CC2c3cc(O)c(Cl)cc3CCN2C)cc1OC (configuration not stated) | 570 nM |
| CN1CCC(N(Cc2ccc(N3CCN(Cc4c[nH]c5ccc(Cl)cc45)CC3)nc2)C2CC2)CC1 | 1000 nM |
